# Data taken from US20210393539A1, “FERRITIN NANOPARTICLES COMPRISING A CHEMOTHERAPEUTIC AGENT” (INTHENA S.R.L., priority 2018, published 2021).
# What was measured:
# [1] = mouse, in vivo
# patient-derived PBMC = system: patient-derived PBMC
# Text: FIG. 1: DOX effects on proliferation potential of PBMC from patients under neoadjuvant chemotherapy.
# A. Flow cytometry of DOX internalization profile in PBMC isolated from a representative patient before and after DOX parenteral infusion.
# B. Quantification of Mean Fluorescence Intensity (MFI) in PBMC isolated from patients. The profiles represent the values of DOX fluorescence in each patient before and after chemotherapy. The histogram reports the mean DOX fluorescence value between all the samples analyzed.
# C. Representative image of proliferation analysis of PBMC isolated from BC patients before and after 1 cycle of neoadjuvant chemotherapy with DOX using CFSE assay.
# D. Quantification of proliferative index at different days of culture after Concanavalin A stimulation (ConA). The proliferation index is the ratio between proliferating cells and progenitor cells. The absence of proliferation is represented by a proliferative index of 1.
# FIG. 2: Characterization of lymphocytes subpopulations that internalize DOX. Flow cytometry immunophenotyping of T-Lymphocytes CD8+ e CD4+ to identify populations that internalize DOX (high, int, low). CM: Central Memory, EM: Effector Memory.
smiles,measurement,setting,value
"COc1cccc2c1C(=O)c1c(O)c3c(c(O)c1C2=O)C[C@@](O)(C(=O)CO)C[C@@H]3O[C@H]1C[C@H](N)[C@H](O)[C@H](C)O1 [DOX, doxorubicin]",cardiomyocyte cross-section area,[1],increase in cardiomyocyte cross-section area
same,mitochondria area and cristae morphology,[1],alteration in mitochondria area and cristae morphology
same,mitochondria number in heart tissue,[1],increase in mitochondria number
same,mitochondrial membrane potential and amount of reduced glutathione,[1],induced alterations
same,DOX uptake by lymphocyte sub-populations,patient-derived PBMC; FIG. 2,naïve T-cells (CD3+CD8+/CD4+CD45RO−) displayed the highest DOX uptake
same,DOX internalization in PBMC,patient-derived PBMC; PBMC isolated after chemotherapy (FIG. 1),promptly internalized DOX
same,proliferation in response to mitogenic stimulations,patient-derived PBMC; after versus before chemotherapy (FIG. 1),dramatic proliferative impairment
